This is an account of results in patent publication US12630521B2, “Arylamides and methods of use thereof” (Genzyme Corporation, priority 2019, dated 2026).

pEC50: −log10 of the molar value.

The target of test [1] is T1, human Cystic Fibrosis Transmembrane Conductance Regulator (CFTR) harboring the ΔF508 mutation (Homo sapiens, UniProt P13569, DEL508-508).
T1 construct: expressed in transfected cells; host or cells: H441 carcinoma cell line (G418 selection)
The test is described as follows: H441 cell Emax and EC50: HRP-tagged ΔF508-CFTR cell-surface luminescence assay. The format is cell-based. Particulars: H441 cells expressing HRP-tagged ΔF508-CFTR, 27° C. for two nights; for pEC50: 15-point dose-response; for Emax: NCI-H441, % of maximum VX809 signal. An excerpt: Example 36: H441 Cell Emax and EC50
Two cell lines were used, the H441 carcinoma line and the CFHBE41o− (41o−) human bronchial epithelial line. Both cell lines expressed human Cystic Fibrosis Transmembrane Conductance Regulator (CFTR) harboring the ΔF508 mutation and with an in-frame fusion in CFTR extracellular loop 4 of Horse Radish Peroxidase (HRP) under control of the CMV promoter. In the presence of the HRP tag, ΔF508-CFTR transported to the cell surface was detectable upon addition of an HRP substrate (Luminata Forte). Both cell types were cultivated at 37° C. with CO2.
For both cell types, the medium was changed every other day unless the culture was at low % confluence. Cells were used for the assays at ˜75% confluence.
DMSO/Compound Dilutions Plate for 15-Point Dose-Response Testing
To a polypropylene (PP) 384-well plate, 15 μls DMSO was added to all wells in columns 1-22 and 24 (low Control). 15 μls of 260 μM VX809 (Lumacaftor), Selleckchem S1565, was added to column 23 wells (high Control). 15 μls of 10 mM test compound or VX809 (control) were added to wells of row A. Serial dilutions of Row A compound were performed 2×15 μls in rows A through 0 (15-point).
A PP, 384-well plate containing the appropriate cell culture medium was prepared for each assay plate with 100 μls per well. For the doxycycline-induced 41o− cells, doxycycline for both the assay plate and the medium dilution plate was added at 0.0005 mg/ml to the medium.
Both cell lines were plated for the assay at 30 μls per 384-well at 3.4×10^e5 cells per ml (˜10K cells/well). H441 cells were plated on opaque, white, Corning plate 3704. 41o− cells were plated on collagen-coated opaque, white, Corning plate 356665. For 41o− cells, doxycycline was added to the medium.
Compound Addition/Assay Incubation
Using FX (Beckman) protocol, 10 μls diluted compound or medium was added per well to the Assay Plate as: 2 μls DMSO Dilution plate well is diluted in 100 μls of the Medium Dilution Plate well, mixed, and 10 μls is transferred to the Assay Plate.
The final assay dilution series is 24.5, 12.3, 6.1, 3.1, 1.5, 0.8, 0.4, 0.2, 0.1, 0.05, 0.02, 0.01, 0.006, 0.003, 0.001 and 0 μM. The 41o− assay plates were incubated at 37° C. w/CO2, the H441 assay plates were incubated at 27° C. w/CO2, each overnight for two nights.
Assay Result Determination
After being brought to room temperature, the assay plate liquid was removed. 30 uls of Luminata Forte (Millipore ELLUF0100) was added per well and incubated at room temperature for 10 min. The plates were then read on a Topcount, protocol LumiMatti (CPS, luminescence). The data was analyzed for % of maximum, maximum VX809 signal, and EC50 using Pearl and SPEED tools.

For test [2], the target named is T2, CFTR (ΔF508 homozygous CF-HBE cells) (Homo sapiens, UniProt P13569, DEL508-508).
T2 construct: Primary human bronchial epithelial cells from a ΔF508 homozygous CF donor; host or cells: primary CF-HBE cells (ΔF508/ΔF508 donor)
The test is described as follows: TECC24 AUC fold over DMSO @10 uM: CFTR-mediated transepithelial chloride transport in primary CF-HBE cells. In kind it is cell-based. As to conditions: 10 μM test agent, 48 hours, forskolin-stimulated IEQ AUC divided by vehicle AUC. On the procedure:
Example 37: TECC24 AUC Fold Over DMSO @10 uM
The effects of a test agent on CFTR-mediated transepithelial chloride transport was measured using TECC24 recording analysis. Test agents were solubilized in DMSO. Solubilized test agents were mixed with incubation medium containing DMEM/F12, Ultroser G (2%; Crescent Chemical, catalog #67042), Hyclone Fetal Clone 11(2%; GE Healthcare, catalog #SH30066.02), bovine brain extract (0.25%; Lonza, catalog #CC-4098), insulin (2.5 μg/mL), IL-13 (10 ng/mL), hydrocortisone (20 nM), transferrin (2.5 μg/mL), triiodothyronine (500 nM), ethanolamine (250 nM), epinephrine (1.5 μM), phosphoethanolamine (250 nM), and retinoic acid (10 nM). Primary human bronchial epithelial cells from a ΔF508 homozygous CF donor (CF-HBE cells; from University of North Carolina Cystic Fibrosis Tissue Procurement Center), grown on Transwell HTS 24-well cell culture inserts (Costar, catalog #3378), were exposed to test agents or controls dissolved in incubation medium. The CF-HBE cells were cultured at 36.5° C. for 48 hours before TECC24 recordings were performed in the presence or absence of test agent, a positive control or vehicle (DMSO).
Following incubation, the transwell cell culture inserts containing the test agent or control-treated CF-HBE cells were loaded onto a TECC24 apparatus (TECC v7 or MTECC v2; EP Design) to record the transepithelial voltage (VT) and resistance (TEER) using 4 AgCl electrodes per well configured in current-clamp mode. The apical and basolateral bath solutions both contained (in mM) 140 NaCl, 5 KCl, 2 CaCl2, 1 MgCl2, 10 Hepes, and 10 glucose (adjusted to pH 7.4 with NaOH). To inhibit basal Na+ absorption, the ENaC inhibitor benzamil (10 μM) was added to the bath. Then, the adenylate cyclase activator, forskolin (10 μM), was added to the bath to activate CFTR. The forskolin-stimulated Cl— transport was halted by addition of CFTR inhibitor-172 (20 μM) to the bath at the end of the experiment to confirm specificity. VT and TEER recordings were digitally acquired at routine intervals using TECC or MTECC software (EP Design). VT and TEER were transformed into equivalent transepithelial Cl-current (IEQ), and the Area Under the Curve (AUC) of the IEQ time course between forskolin and CFTR inhibitor-172 addition is generated using Excel (Microsoft). Efficacy is expressed as the ratio of the test agent AUC divided by vehicle AUC. EC50s based on AUC are generated using the non-linear regression log(agonist) vs. response function in Prism software (GraphPad) with Hill Slope fixed=1.
If a test agent increased the AUC of the forskolin-stimulated IEQ relative to vehicle in CF-HBE cells, and this increase was inhibited by CFTR inhibitor-172, then the test agent was considered a CFTR corrector.

T1 sequence (P13569 with tags, fused parts or gaps DEL508-508): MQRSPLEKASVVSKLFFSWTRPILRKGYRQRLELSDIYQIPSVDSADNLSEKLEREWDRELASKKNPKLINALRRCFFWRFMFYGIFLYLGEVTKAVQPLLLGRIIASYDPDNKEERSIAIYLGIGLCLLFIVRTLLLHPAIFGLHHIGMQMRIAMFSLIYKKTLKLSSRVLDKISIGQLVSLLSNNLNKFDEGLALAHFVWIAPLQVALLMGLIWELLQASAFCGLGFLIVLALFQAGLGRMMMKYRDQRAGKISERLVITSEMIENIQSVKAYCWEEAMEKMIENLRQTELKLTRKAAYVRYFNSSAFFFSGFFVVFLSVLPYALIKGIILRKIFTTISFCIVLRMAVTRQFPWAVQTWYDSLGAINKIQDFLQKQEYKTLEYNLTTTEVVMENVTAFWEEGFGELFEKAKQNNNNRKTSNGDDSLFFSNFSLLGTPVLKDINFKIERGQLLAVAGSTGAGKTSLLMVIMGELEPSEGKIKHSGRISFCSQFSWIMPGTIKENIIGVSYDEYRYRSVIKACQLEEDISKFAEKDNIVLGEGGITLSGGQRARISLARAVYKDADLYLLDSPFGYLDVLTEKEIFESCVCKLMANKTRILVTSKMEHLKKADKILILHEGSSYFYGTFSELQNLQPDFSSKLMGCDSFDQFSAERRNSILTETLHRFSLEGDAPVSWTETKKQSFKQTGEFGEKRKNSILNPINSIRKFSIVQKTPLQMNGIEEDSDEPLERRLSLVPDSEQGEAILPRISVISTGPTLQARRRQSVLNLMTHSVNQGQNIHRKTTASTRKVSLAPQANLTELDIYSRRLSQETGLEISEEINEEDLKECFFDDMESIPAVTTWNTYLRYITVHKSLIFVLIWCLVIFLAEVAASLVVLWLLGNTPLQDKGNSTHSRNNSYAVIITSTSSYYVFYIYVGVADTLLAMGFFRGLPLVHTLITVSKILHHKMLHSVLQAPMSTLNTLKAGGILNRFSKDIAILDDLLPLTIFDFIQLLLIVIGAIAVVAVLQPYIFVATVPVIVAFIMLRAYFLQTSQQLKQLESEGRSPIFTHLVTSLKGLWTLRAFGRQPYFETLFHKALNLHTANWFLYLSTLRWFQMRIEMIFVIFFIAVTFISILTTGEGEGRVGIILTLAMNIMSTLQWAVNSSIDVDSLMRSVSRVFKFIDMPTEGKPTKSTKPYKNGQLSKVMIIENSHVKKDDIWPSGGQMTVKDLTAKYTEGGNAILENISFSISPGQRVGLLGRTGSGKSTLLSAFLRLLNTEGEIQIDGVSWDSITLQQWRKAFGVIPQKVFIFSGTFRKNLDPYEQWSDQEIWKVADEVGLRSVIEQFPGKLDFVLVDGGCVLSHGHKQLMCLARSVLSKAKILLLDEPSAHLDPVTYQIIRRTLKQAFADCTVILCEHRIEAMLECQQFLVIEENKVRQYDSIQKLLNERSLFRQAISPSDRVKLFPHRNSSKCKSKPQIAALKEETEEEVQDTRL
T2 sequence (P13569 with tags, fused parts or gaps DEL508-508): as above

As a reminder, the pEC50 is −log10 of the EC50, conventionally taken in molar units. The term Emax denotes the greatest response seen or fitted, relative to the assay's reference. In test [1], `CC(C)(c1ccccc1)C(NC(=O)c1ccc2sccc2c1OCC1CCC(F)(F)CC1)C(=O)O` (centres unmarked) [Compound 32-2, 2-(4-((4,4-difluorocyclohexyl)methoxy)-benzo[b]thiophene-5-carboxamido)-3-methyl-3-phenylbutanoic acid] showed a negative logarithm of the EC50 (pEC50) of 5.49 and a maximal response (Emax) of 112%. Also, the “TECC24 AUC fold over DMSO” value in test [2] is recorded as “C (“C” refers to AUC @10 μM < 4)”.
For `CC1(C(NC(=O)c2ccc3sccc3c2OCC2CCC(F)(F)CC2)C(=O)O)CCCCC1` (centres unmarked) [Compound 32-4, 2-(4-((4,4-difluorocyclohexyl)methoxy)-benzo[b]thiophene-5-carboxamido)-2-(1-methylcyclohexyl)acetic acid] the same measures were 5.36, 78.7% and “C (“C” refers to AUC @10 μM < 4)”.
For `CC(C)(c1ccccc1)C(NC(=O)c1ccc2sccc2c1OCc1ccc(SC(F)(F)F)cc1)C(=O)O` (centres unmarked) [Compound 32-5, 3-methyl-3-phenyl-2-(4-((4-((trifluoromethyl)thio)benzyl)oxy)-benzo[b]thiophene-5-carboxamido)butanoic acid] the same measures were 6.30, 93.5% and “C (“C” refers to AUC @10 μM < 4)”.
As for `CC1(C(NC(=O)c2ccc3sccc3c2OCc2ccc(OC(F)(F)F)cc2)C(=O)O)CCCCC1` (centres unmarked) [Compound 32-6, 2-(1-methylcyclohexyl)-2-(4-((4-(trifluoromethoxy)benzyl)oxy)-benzo[b]thiophene-5-carboxamido)acetic acid], in test [1], the pEC50 was 5.48 and the maximal effect (Emax) amounted to 142%. Further, the “TECC24 AUC fold over DMSO” value in test [2] is “C (“C” refers to AUC @10 μM < 4)”.
`CC(C)(C)[C@H](NC(=O)c1ccc2sccc2c1OCC1CCC(F)(F)CC1)C(=O)O` [Compound 32-7, (2S)-2-(4-((4,4-difluorocyclohexyl)methoxy)-benzo[b]thiophene-5-carboxamido)-3,3-dimethylbutanoic acid]: in test [1], the pEC50 is 5.16 and the Emax was determined as 127%. Further, the “TECC24 AUC fold over DMSO” value in test [2] is “C (“C” refers to AUC @10 μM < 4)”.
In test [1], `CC(C)(C)[C@H](NC(=O)c1ccc2sccc2c1OCc1ccc(OC(F)F)cc1)C(=O)O` [Compound 32-8, (2S)-2-(4-((4-(difluoromethoxy)benzyl)oxy)-benzo[b]thiophene-5-carboxamido)-3,3-dimethylbutanoic acid] showed a pEC50 of 5.34 and an Emax of 4.1%.
In test [1], `CC(C)(C)[C@H](NC(=O)c1ccc2sccc2c1OCc1ccc(C(F)(F)F)cc1)C(=O)O` [Compound 32-9, (2S)-3,3-dimethyl-2-(4-((4-(trifluoromethyl)benzyl)oxy)-benzo[b]thiophene-5-carboxamido)butanoic acid] showed a pEC50 of 5.97 and an Emax of 193%. For the same compound, the “TECC24 AUC fold over DMSO” value in test [2] is given as “C (“C” refers to AUC @10 μM < 4)”.
For `CCC(C)(C)[C@H](NC(=O)c1ccc2sccc2c1OCC1CCC(F)(F)CC1)C(=O)O` [Compound 32-10, (2S)-2-(4-((4,4-difluorocyclohexyl)methoxy)-benzo[b]thiophene-5-carboxamido)-3,3-dimethylpentanoic acid], in test [1], the pEC50 was 5.14 and the maximum response (Emax) is 85.3%. Further, the “TECC24 AUC fold over DMSO” value in test [2] was “C (“C” refers to AUC @10 μM < 4)”.
`CC(C)(C)[C@H](NC(=O)c1ccc2sc(C(F)F)nc2c1OCc1ccc(C(F)(F)F)cc1)C(=O)O` [Compound 35-4, (2S)-2-[[2-(difluoromethyl)-4-[[4-(trifluoromethyl)phenyl]methoxy]-1,3-benzothiazole-5-carbonyl]amino]-3,3-dimethyl-butanoic acid]: in test [2], the “TECC24 AUC fold over DMSO” value is on record as “A (“A” refers to AUC @10 μM > 6)”.
Same read-out and setting: as for `CC(C)(C)[C@H](NC(=O)c1ccc2sc(C3CC3)nc2c1OCc1ccc(C(F)(F)F)cc1)C(=O)O` [Compound 35-5, (2S)-2-[[2-cyclopropyl-4-[[4-(trifluoromethyl)phenyl]methoxy]-1,3-benzothiazole-5-carbonyl]amino]-3,3-dimethyl-butanoic acid], the entry is “A (“A” refers to AUC @10 μM > 6)”; as for `CCC(C)(C)[C@H](NC(=O)c1ccc2sc(C3CC3)nc2c1OCc1ccc(C(F)(F)F)cc1)C(=O)O` [Compound 35-6, (2S)-2-[[2-cyclopropyl-4-[[4-(trifluoromethyl)phenyl]methoxy]-1,3-benzothiazole-5-carbonyl]amino]-3,3-dimethyl-pentanoic acid], “A (“A” refers to AUC @10 μM > 6)”.
For `CC(C)(C)[C@H](NC(=O)c1ccc2sc(C3CCCC3)nc2c1OCc1ccc(C(F)(F)F)cc1)C(=O)O` [Compound 35-7, (2S)-2-[[2-cyclopentyl-4-[[4-(trifluoromethyl)phenyl]methoxy]-1,3-benzothiazole-5-carbonyl]amino]-3,3-dimethyl-butanoic acid], the “TECC24 AUC fold over DMSO” value in test [2] is “A (“A” refers to AUC @10 μM > 6)”.
Turning to `CC(C)(C)[C@H](NC(=O)c1ccc2sc(C3(F)CC3)nc2c1OCc1ccc(C(F)(F)F)cc1)C(=O)O` [Compound 35-8, (2S)-2-[[2-(1-fluorocyclopropyl)-4-[[4-(trifluoromethyl)phenyl]methoxy]-1,3-benzothiazole-5-carbonyl]amino]-3,3-dimethyl-butanoic acid], the “TECC24 AUC fold over DMSO” value in test [2] is reported as “A (“A” refers to AUC @10 μM > 6)”.
Same read-out and setting: in the case of `CC(C)(C)[C@H](NC(=O)c1ccc2sc(C3CCC3)nc2c1OCc1ccc(C(F)(F)F)cc1)C(=O)O` [Compound 35-9, (2S)-2-[[2-cyclobutyl-4-[[4-(trifluoromethyl)phenyl]methoxy]-1,3-benzothiazole-5-carbonyl]amino]-3,3-dimethyl-butanoic acid] it was “A (“A” refers to AUC @10 μM > 6)”.
